# Measured values published in patent US6541483B2, “Acridone-derived compounds useful as antineoplastic and antiretroviral agents” (The United States of America as represented by the …, priority 1996, dated 2003).
# Like-named read-outs stand apart in the source and are kept apart here.
# How the values were obtained:
# [1] = test system: HIV-1; experiment: XTT cytoprotection assay in CEM-SS cells (antiviral EC50); format: cell-based
# Excerpt: Briefly, the infected cells in culture are killed by the virus, and the cytotoxicity is detected by the formation of color due to the […] of a formazan dye (XTT) by enzymes released by the dying cells (Weislow et al., J. Natl. Cancer Inst. 81:577-586, 1989). An effective antiviral drug is able to protect the infected cells from cytotoxicity by inhibiting some vital function of the virus. […] FIGS. 4 and 5 show the cytoprotective activity of WMC26 and WMC42. Since many drugs can also be toxic to cells in their own right, a parallel experiment is carried out wherein uninfected cells are treated with the drugs until a concentration is reached where the cells are killed by the action of the drug.
# (§1) As a result of these preliminary data, additional experiments were carried out to establish the antiviral activity in other cell lines, using a variety of protocols. The preliminary experiments in lymphocytes were confirmed using infected macrophages. Much more extensive experiments were carried out in HIV-1-infected CEM SS leukemia cells. […] However, two derivatives were found which had low antileukemic activity while maintaining high antiviral activity. […] This gives a therapeutic index of more than 3 orders of magnitude. The corresponding therapeutic index for WMC50 is about 100-200, which is quite acceptable. Additional experiments were carried out on WMC-70. […] Further, WMC-70 appears to affect post-transcription events in the virus. […] While the inhibition of integration appears to be the principal mechanism by which this compound exerts its antiviral activity, there are perhaps other mechanisms which are also involved in the therapeutic action of this drug, and by extension, of other antiviral drugs of this class.
# The antiviral properties of the WMC series of compounds were evaluated. First, all compounds were tested for their ability to inhibit HIV-1 replication in cell culture using the XTT cytoprotection assay. This assay measures the concentration-dependent capacity of compounds to protect CEM-SS cells from the cytopathic effects of HIV-1. […] Thus, temacrazine was the most efficacious compound in the XTT cytoprotection assay. This conclusion was also reached when the compounds were tested for anti-HIV-1 activity against HIV-1ADA in human monocyte/macrophage cultures (Table 1).
# [2] = test system: attachment of HIV-1RF to CEM-SS cells; experiment: attachment of virions to CEM-SS cells (cell-bound p24 ELISA); format: cell-based; settings: Human immunodeficiency virus 1, CEM-SS
# Excerpt: (§2) Based on the findings thus far our efforts have focused on biological assays of the temacrazine congener.
# [3] = biological target: T1, HIV-1 protease (Human immunodeficiency virus type 1 group M subtype B, UniProt P04585); experiment: protease activity, HPLC-based assay; format: biochemical
# [4] = biological target: T1, HIV-1 protease; experiment: Pr55gag processing assay with recombinant protease; format: biochemical; settings: enzyme pretreated one hour at 37° C.
# Experimental: However, to insure that the HPLC-based assay (used in Table 1) was providing accurate findings, the action of temacrazine in the Gag processing assay was evaluated. In this assay, purified recombinant HIV-1 protease enzyme was pretreated with the test reagent for one hour at 37° C., and then exposed the recombinant Pr55^gag precursor polyprotein to the treated enzyme.
# [5] = biological target: p7 nucleocapsid protein zinc fingers (Human immunodeficiency virus type 1 group M subtype B, UniProt P04591); experiment: p7NC zinc finger fluorescence assays (TSQ, Trp37); format: biochemical, HIV-1
# Excerpt: as §2
# [6] = test system: HIV-1 proviral DNA formation (LTR/gag); experiment: time course assay of proviral DNA formation; format: cell-based; settings: amplified LTR/gag region
# [7] = test system: HIV-1 in ACH-2 cells; experiment: TNFα stimulated latently infected ACH-2 cells, virus production; format: cell-based; settings: Human immunodeficiency virus 1, 72 h, read-out: EC50, inhibition of HIV-1 virus replication (virion-associated p24)
# Experimental: In a similar study, cells were either treated for 24h with TNFα followed by the addition of temacrazine, or temacrazine and TNFα were added simultaneously, or temacrazine was added 24 h […] TNFα addition. After TNFα induction and temacrazine treatment, cultures were continued for 72 h after which virion-associated p24 and cell viability (XTT dye reduction) were measured.
# [8] = test system: HIV-1 LTR-directed chloramphenicol acetyltransferase (CAT) activity; experiment: LTR-directed CAT activity in BF-24 cells; format: cell-based; settings: 24 h, temacrazine up to 5 μM
# Excerpt: Initiation and regulation of HIV-1 transcription requires a complex series of interactions with cellular transcription factors, such as NFkB, SP-1 and AP-1, and the participation of cellular factors in the transcriptional complex. In addition, the post-integrative model used here requires TNFα stimulated U1 and ACH-2 cells, this model requires not only the participation of the NFkB transcriptional complex, and also components of the TNFα signaling pathway. In order to rule out that temacrazine was non-specifically effecting transcription or down-regulating replication by interfering with the TNFα signal pathway, LTR-directed chloramphenicol acetyltransferase (CAT) activity was measured in BF-24 cells. BF-24 cells are derived from the THP-1 monocytic cell line and carry a stably integrated CAT gene under the transcriptional control of the HIV-1 LTR (S. Schwartz, et al., Proc. Natl. Acad. Sci. USA 86:7200 (1989); B. K. Felber, et al., Science 239:184 (1988)). The LTR in this monocytic cell line is inducible by IL-6, PMA and TNFα, and produces enzymatically active chloramphenicol transferase (“CAT”). […]
# CAT activity was determined using a fluorescent Bodipy conjugated chloramphenicol after 18 h of reaction with 50 μg of protein extract containing Acetyl CoA.
# [9] = test system: HIV-1 mRNA; experiment: RT-PCR of HIV-1 mRNA expression and splicing after TNFα induction; format: cell-based
# Experimental: Similar results were seen when temacrazine and TNFα were added simultaneously.
# As a control the house keeping gene porphobilinogen deaminase (Hydroxymethylbilane synthase, “PBGD”) was amplified to determine uniformity of loading.
# [10] = test system: HIV-1 virus; experiment: direct treatment of HIV-1 virus, infection of CEM cells; format: cell-based
# Experimental: as §1
# [11] = biological target: HIV-1 integrase (Human immunodeficiency virus type 1 group M subtype B, UniProt P04585); experiment: 3'-processing and strand transfer with recombinant integrase; format: biochemical; parameters: in vitro assay using purified oligomers and recombinant HIV-1 integrase
# Excerpt: as §2
structure (smiles),measurement,setting,value
O=c1c2ccccc2n2nnc3ccc(NCCCN4CCN(CCCNc5ccc6nnn7c8ccccc8c(=O)c5c67)CC4)c1c32 [temacrazine],therapeutic index,[1]; CEM SS cells,more than 3 orders of magnitude
same,cytoprotective activity,[1]; HIV-1-infected CEM SS leukemia cells,cytoprotective at very low concentrations
same,EC50,"[1]; Human immunodeficiency virus 1, CEM-SS, read-out: EC50 (inhibits the cytotoxic effect of the virus to 50%)",< 0.001 µM
same,EC50,"[1]; Human immunodeficiency virus 1, CEM-SS, read-out: XTT Assay EC50",0.0011 µM
same,EC50,"[1]; Human immunodeficiency virus 1, CEM-SS cells, read-out: EC50 antiviral value, XTT cytoprotection assay",0.0011 µM
same,IC50,"[2]; Table 1, read-out: Attachment ID50",> 100 µM
same,IC50,"[2]; Table 1A, read-out: I50 Attachment",> 100 µM
same,inhibition of HIV protease,[3],did not inhibit
same,inhibition of protease in Gag processing assay,[4],had no inhibitory effect
same,damage of the gag protein zinc finger,[5],did not damage
same,formation of proviral DNA during reverse transcription,[6],did not prevent the formation of proviral DNA
same,EC50,[7],0.01 to 0.1 µM
same,CAT induction by TNFα,[8],did not significantly alter CAT induction
same,PBGD (house keeping gene) expression,[9],did not decrease
same,expression of unspliced or singly spliced mRNA,"[9]; 500 and 50 nM, prior to or 24 h after TNFα induction",completely inhibited
same,expression of HIV-1 multispliced transcripts,"[9]; RT-PCR, rev independent mRNAs",did not alter
same,infectivity of drug-treated HIV-1 virus,[10],appeared to prevent its ability to infect CEM cells
same,IC50,[11],0.01 to 0.1 µM
same,EC50,"[11]; read-out: EC50, 3'-processing and strand transfer activity, purified oligomers, recombinant HIV-1 integrase",0.01 to 0.1 µM
